Measurements as given in US11466020B2, “Compounds and compositions for inhibition and elimination of Zika infection and uses for same” (Cornell University, priority 2017, dated 2022).
Structures can show the parent of a compound that is named as a salt.

How the values were obtained:
ZIKV (MR766 strain) = assay: qRT-PCR of total ZIKV vRNA in supernatant of hNPC cultures; assay type: cell-based, Zika virus; conditions: 72 h after infection
Protocol: (A) Scheme of high content chemical screen. (B) Chemical structure of hit compounds. (C) Inhibitory curve and IC50 of HH or AQ on hNPCs (n=6). (D-H) Immunocytochemistry analysis (D), the quantification of the infection rate (E), the quantification of proliferation rate (F), the quantification of cell apoptosis rate (G) and the normalized cell viability (H) of hNPCs at 72 h after ZIKV (MR 766 strain) infection with or without drug treatment. Scale bars, 100 μm. The ZIKV infection rate is defined as the percentage of ZIKV E^+ cells. The proliferation rate is defined as the percentages of Ki67^+ cells. The cell apoptosis rate was defined as the percentage of cleaved-Caspase 3/CAS3^+ cells. The normalized cell viability was calculated by dividing the total cell number of each condition by the total cell number under mock infection conditions. (n=6). […] (K) Quantification of ZIKV infectious particles produced by ZIKV-infected hNPCs with or without compound treatment by the Vero cell reinfection assay. […] (M and N) Immunocytochemistry analysis (M) and quantification of the infection rate (N) of hNPCs at 72 h after ZIKV (PRVABC59 strain) infection with or without drug treatment (n=6). Scale bars, 100 μm. p values were calculated by one-way repeated measures ANOVA with a Bonferroni test for multiple comparisons. *p<0.05, **p<0.01 and ***p<0.001. […]

ZIKV MR766 = assay: Inhibition of ZIKV infection of hNPCs (high content screen / inhibitory curve, ZIKV E staining); assay type: cell-based, Zika virus; conditions: for ZIKV infection of hNPCs compared to DMSO controls: 72 h after ZIKV (MR766) infection; for IC50: Zika virus, hNPCs, ZIKV MR766 MOI=0.125, compound added before infection, infection rate (ZIKV E+ cells), read-out: IC50 values of anti-ZIKV activity
Protocol: A high content chemical screen identifies compounds that inhibit ZIKV infection of hNPCs. To identify drugs that inhibit ZIKV infection, we screened the Prestwick library that includes 1120 FDA-approved drug and drug candidates, selected for known bioavailability and safety in humans. To perform the screen, hNPCs seeded in 384-well plates were treated with each compound from the library or vehicle control (DMSO) for 1 hour, followed by addition of ZIKV MR766 at a MOI=0.125. After two hour of inoculation with ZIKV, the virus-containing medium was replaced by fresh virus-free medium and compounds were replenished for each well (See Methods). After an additional three days of culture, cells were fixed and stained with antibodies against the ZIKV envelop protein (ZIKV E) and a cell proliferation marker Ki67 (FIG. 1A). The percentages of ZIKV E^+ cells, Ki67^+ cells and total cell number were quantified by an automated imaging and analysis system. A two dimensional analysis was performed to choose the primary hit compounds (FIG. 5A). The X-axis represents the fold change of total cell number, which was calculated by dividing the total cell number of the chemical-treated well by the average total cell number of DMSO-treated wells. The Y-axis represents the fold change of the percentage of ZIKV infected cells, which was calculated by dividing the percentage of cells expressing ZIKV E in each chemical-treated well by the average of the percentage of cells expressing ZIKV E from DMSO-treated wells. […] Based on the fold change of the percentage of ZIKV infection, the signal-to-basal (S/B) ratio is 4.2 and the coefficient of variation (CV) is 6.9%. The Z factor is 0.59 indicating a robust screening system.
hNPCs were plated on 96-well plates at 8.5×10^4/cm^2. After overnight incubation, hNPCs were infected with ZIKV (MR766 strain, MOI=0.125) for 2 h, and changed to virus-free medium. The cells were maintained in NPC medium with daily medium change. Three days later, the supernatant and cells were collected and used for assays. hESC-derived forebrain organoids were infected with ZIKV MR766 (5×10^5 PFU/ml) for 24 h. After removal of virus containing medium, forebrain organoids were maintained in forebrain organoid medium for an additional 3 or 17 days and then used for assays.
High-content Screen. hNPCs were dissociated and plated on Matrigel-coated 384-well plates for the chemical screen. […] DMSO was used as a negative control. ZIKV MR766 was added at MOI=0.125. After 2 hour infection, the supernatant was replaced with fresh medium and compounds from the same chemical library were added to the same wells. After an additional 3 days incubation, cells were fixed, stained with antibodies against ZIKV envelop protein (ZIKV E) and proliferation marker Ki67, and analyzed with the ImageXpress^MICRO Automated High-Content Analysis System. […] X-axis represents the fold change of total cell number, which was calculated by dividing the total cell number of the chemical treated well by the average of total cell number of DMSO treated wells. Y-axis represents the fold change of the percentage of ZIKV infection, which was calculated by dividing the percentage of ZIKV infection of the chemical treated well by the average of the percentage of ZIKV infection of DMSO treated wells. The compounds in which the fold change of total cell number >1 and the fold change of the percentage of ZIKV infection <20% were further evaluated. […]

[1] = system: transcriptional changes induced by ZIKV (MR766 strain) infection; assay: RNA-seq analysis of ZIKV infected hNPCs; assay type: cell-based, human; conditions: 72 h post-inoculation, 25 μM HH or 15 μM AQ

## CCN(CC)Cc1cc(Nc2ccnc3cc(Cl)ccc23)ccc1O [AQ, amodiaquine dihydrochloride dihydrate]
ZIKV (MR766 strain)
  production of ZIKV viral RNA (vRNA), qRT-PCR: significantly suppressed
ZIKV MR766
  ZIKV infection of hNPCs compared to DMSO controls: effectively inhibited ZIKV infection
  IC50: 6 µM
[1]
  transcriptional changes induced by ZIKV infection (RNA-seq): reversed the transcriptional changes

## CN1CCC2=C[C@H](O)[C@H]3OC(=O)c4cc5c(cc4[C@H]3[C@@H]21)OCO5 [HH, hippeastrine hydrobromide]
ZIKV (MR766 strain)
  production of ZIKV viral RNA (vRNA), qRT-PCR: significantly suppressed
ZIKV MR766
  ZIKV infection of hNPCs compared to DMSO controls: effectively inhibited ZIKV infection
  IC50: 5.5 µM
[1]
  transcriptional changes induced by ZIKV infection (RNA-seq): reversed the transcriptional changes
